The values that follow come from patent publication US8299111B2, “Compounds which modulate the CB2 receptor” (Boehringer Ingelheim International GmbH, priority 2006, dated 2012).

This test deals with T1, human CB2R (Homo sapiens, UniProt P34972).
T1 construct: host or cells: CHO cells
T1 sequence (P34972 whole entry): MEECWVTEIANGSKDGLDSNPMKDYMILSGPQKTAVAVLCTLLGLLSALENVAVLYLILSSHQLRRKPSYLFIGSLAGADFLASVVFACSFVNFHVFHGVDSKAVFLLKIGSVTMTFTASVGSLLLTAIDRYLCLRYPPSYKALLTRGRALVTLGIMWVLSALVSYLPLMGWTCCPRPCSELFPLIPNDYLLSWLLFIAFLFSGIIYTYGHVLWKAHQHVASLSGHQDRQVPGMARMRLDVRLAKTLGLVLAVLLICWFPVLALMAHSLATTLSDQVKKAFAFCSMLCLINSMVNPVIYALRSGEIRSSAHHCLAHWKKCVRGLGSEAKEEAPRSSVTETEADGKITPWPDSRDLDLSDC
In words: CB2R mediated modulation of cAMP synthesis. Format: cell-based. To be noted: found through the use of the above described assays (binding and cAMP); CHO cells expressing human CB2R, forskolin-stimulated cAMP. A digest of the protocol:
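EC50 values reflect inhibition of cAMP made in response to 10 uM forskolin (with 1 mM IBMX, 0.25% BSA) over 30 min at 37 °C in human CB2R-expressing CHO cells. The window runs from forskolin alone to 1 uM CP55940; curves fitted with a four-parameter logistic model.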
On to `CC(C)(C)c1cc(NC(=O)CS(=O)(=O)c2ccc(C(F)(F)F)cc2)no1` [N-(5-tert-Butyl-isoxazol-3-yl)-2-(4-trifluoromethyl-benzenesulfonyl)-acetamide], for which the agonistic activity entry is “agonistic activity”.
With `CC(C(=O)Nc1cc(C(C)(C)C)on1)S(=O)(=O)c1ccc(C(F)(F)F)cc1` (stereo not drawn) [N-(5-tert-Butyl-isoxazol-3-yl)-2-(4-trifluoromethyl-benzenesulfonyl)-propionamide], the agonistic activity result is listed as “agonistic activity”.
In the case of `CC(C)(C)c1cc(NC(=O)C(C)(C)S(=O)(=O)c2ccc(Cl)s2)no1` [N-(5-tert-Butyl-isoxazol-3-yl)-2-(5-chloro-thiophene-2-sulfonyl)-2-methyl-propionamide], the agonistic activity entry is “agonistic activity”.
The same measure for `CC(C)(C)c1cc(NC(=O)C(C)(C)S(=O)(=O)c2ccc(Cl)nc2)no1` [N-(5-tert-Butyl-isoxazol-3-yl)-2-(6-chloro-pyridine-3-sulfonyl)-2-methyl-propionamide]: “agonistic activity”.
Next, `COc1ccc(S(=O)(=O)C(C)(C)C(=O)Nc2cc(C(C)(C)C)on2)cn1` [N-(5-tert-Butyl-isoxazol-3-yl)-2-(6-methoxy-pyridine-3-sulfonyl)-2-methyl-propionamide]: “agonistic activity”; `CC(C)(C)c1cc(NC(=O)C(C)(C)S(=O)(=O)c2cccc(OC(F)(F)F)c2)no1` [N-(5-tert-Butyl-isoxazol-3-yl)-2-methyl-2-(3-trifluoromethoxy-benzenesulfonyl)-propionamide]: “agonistic activity”; `CC(C)(C)c1cc(NC(=O)C(C)(C)S(=O)(=O)c2cccc(C(F)(F)F)c2)no1` [N-(5-tert-Butyl-isoxazol-3-yl)-2-methyl-2-(3-trifluoromethyl-benzenesulfonyl)-propionamide]: “agonistic activity”.
Next, `CC(C)(C)c1cc(NC(=O)C(C)(C)S(=O)(=O)c2ccc(C(F)(F)F)cc2)no1` [N-(5-tert-Butyl-isoxazol-3-yl)-2-methyl-2-(4-trifluoromethyl-benzenesulfonyl)-propionamide]: “agonistic activity”; `CC(C)(C)c1cc(NC(=O)C(C)(C)S(=O)(=O)c2ccc(C(F)(F)F)cn2)no1` [N-(5-tert-Butyl-isoxazol-3-yl)-2-methyl-2-(5-trifluoromethyl-pyridine-2-sulfonyl)-propionamide]: “agonistic activity”; `Cc1ccc(S(=O)(=O)C(C)(C)C(=O)Nc2cc(C(C)(C)C)on2)cn1` [N-(5-tert-Butyl-isoxazol-3-yl)-2-methyl-2-(6-methyl-pyridine-3-sulfonyl)-propionamide]: “agonistic activity”.
For the molecule `CC(C)(C)c1cc(NC(=O)C(C)(C)S(=O)(=O)c2ccc(C(F)(F)F)nc2)no1` [N-(5-tert-Butyl-isoxazol-3-yl)-2-methyl-2-(6-trifluoromethyl-pyridine-3-sulfonyl)-propionamide], the agonistic activity entry is “agonistic activity”.
The same measure for `CC(C)(C)c1cc(NC(=O)C(C)(C)S(=O)(=O)c2ccc3ccccc3c2)no1` [N-(5-tert-Butyl-isoxazol-3-yl)-2-methyl-2-(naphthalene-2-sulfonyl)-propionamide]: “agonistic activity”.
In the case of `CC(C)(C)c1cc(NC(=O)C(C)(C)S(=O)(=O)c2ccccn2)no1` [N-(5-tert-Butyl-isoxazol-3-yl)-2-methyl-2-(pyridine-2-sulfonyl)-propionamide], the agonistic activity result was “agonistic activity”.
With `CC(C)(C)c1cc(NC(=O)C(C)(C)S(=O)(=O)c2cccnc2)no1` [N-(5-tert-Butyl-isoxazol-3-yl)-2-methyl-2-(pyridine-3-sulfonyl)-propionamide], the agonistic activity entry is “agonistic activity”.
Next, `CC(C)(C)c1cc(NC(=O)C(C)(C)S(=O)(=O)c2cccc3cccnc23)no1` [N-(5-tert-Butyl-isoxazol-3-yl)-2-methyl-2-(quinoline-8-sulfonyl)-propionamide]: “agonistic activity”.
